The values that follow come from the supplement of paper PMC10627819.

Common to all, as to assay: Bliss interaction score (quartile over a dose matrix) (fitness difference); higher = more antagonism (negative = synergy)
One experiment concerns B. subtilis 168. As to conditions: main component drawn. The gist of the method: (§1)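 OD595 was read at entry into stationary phase and expressed relative to the robust mean of the no-drug wells on the same plate, capped at 1. The resulting ratio is the fitness value. The Bliss score, observed fitness minus product-based expected fitness with single-drug fitness inferred from combinations, is summarised by quartiles over technical, biological and donor/recipient replicates.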

In a further experiment the test system is S. aureus DSM 20231. The gist of the method:
as §1

In another experiment the test system is S. aureus Newman. The note with it: main component drawn. An outline of the steps:
as §1

A further experiment relates to S. pneumoniae D39V. The note with it: main component drawn. An outline of the steps: as §1
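Also: first quartile when negative (synergy) and third quartile when positive (antagonism).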

In the case of `CC[C@H](C)[C@H](N)C1=N[C@H](C(=O)N[C@@H](CC(C)C)C(=O)N[C@H](CCC(=O)O)C(=O)N[C@H](C(=O)N[C@H]2CCCCNC(=O)[C@H](CC(N)=O)NC(=O)[C@@H](CC(=O)O)NC(=O)[C@H](Cc3cnc[nH]3)NC(=O)[C@@H](Cc3ccccc3)NC(=O)[C@H]([C@@H](C)CC)NC(=O)[C@@H](CCCN)NC2=O)[C@@H](C)CC)CS1` [Bacitracin] + C1=CC(=CC(=C1)Cl)NN=C(C#N)C#N [CCCP], the Bliss interaction score was 0.0608 with B. subtilis 168, -0.0168 in the experiment on S. aureus DSM 20231 (main component drawn), 0.194 with S. aureus Newman and 0.0638 in the experiment on S. pneumoniae D39V.
On the same counts, the results for `CC[C@H](C)[C@H](N)C1=N[C@H](C(=O)N[C@@H](CC(C)C)C(=O)N[C@H](CCC(=O)O)C(=O)N[C@H](C(=O)N[C@H]2CCCCNC(=O)[C@H](CC(N)=O)NC(=O)[C@@H](CC(=O)O)NC(=O)[C@H](Cc3cnc[nH]3)NC(=O)[C@@H](Cc3ccccc3)NC(=O)[C@H]([C@@H](C)CC)NC(=O)[C@@H](CCCN)NC2=O)[C@@H](C)CC)CS1` [Bacitracin] + CC1(C)S[C@@H]2[C@H](NC(=O)Cc3ccccc3)C(=O)N2[C@H]1C(=O)O [PenicillinG] are -0.164, 0.0263, 0.0689 and -0.0799.
On the same counts, the results for `CC[C@H](C)[C@H](N)C1=N[C@H](C(=O)N[C@@H](CC(C)C)C(=O)N[C@H](CCC(=O)O)C(=O)N[C@H](C(=O)N[C@H]2CCCCNC(=O)[C@H](CC(N)=O)NC(=O)[C@@H](CC(=O)O)NC(=O)[C@H](Cc3cnc[nH]3)NC(=O)[C@@H](Cc3ccccc3)NC(=O)[C@H]([C@@H](C)CC)NC(=O)[C@@H](CCCN)NC2=O)[C@@H](C)CC)CS1` [Bacitracin] + CC(=O)O[C@H]1C[C@@]2(C)[C@@H](C[C@@H](O)[C@H]3[C@@]4(C)CC[C@@H](O)[C@@H](C)[C@@H]4CC[C@@]32C)/C1=C(\CCC=C(C)C)C(=O)O [Fusidic acid] are -0.166, 0.012, -0.0273 and -0.0749.
In the case of `CC[C@H](C)[C@H](N)C1=N[C@H](C(=O)N[C@@H](CC(C)C)C(=O)N[C@H](CCC(=O)O)C(=O)N[C@H](C(=O)N[C@H]2CCCCNC(=O)[C@H](CC(N)=O)NC(=O)[C@@H](CC(=O)O)NC(=O)[C@H](Cc3cnc[nH]3)NC(=O)[C@@H](Cc3ccccc3)NC(=O)[C@H]([C@@H](C)CC)NC(=O)[C@@H](CCCN)NC2=O)[C@@H](C)CC)CS1` [Bacitracin] + CC[C@H]1OC(=O)[C@H](C)C(=O)[C@H](C)[C@@H](O[C@@H]2O[C@H](C)C[C@H](N(C)C)[C@H]2O)[C@](C)(OC)C[C@@H](C)C(=O)[C@H](C)[C@H]2N(CCCCn3cnc(-c4cccnc4)c3)C(=O)O[C@]12C [Telithromycin], the Bliss interaction score in the experiment on B. subtilis 168 was -0.0381; in the experiment on S. aureus DSM 20231 (main component drawn) it was -0.0302; in the experiment on S. aureus Newman, -0.047; with S. pneumoniae D39V, 0.0263.
Regarding `CC[C@H](C)[C@H](N)C1=N[C@H](C(=O)N[C@@H](CC(C)C)C(=O)N[C@H](CCC(=O)O)C(=O)N[C@H](C(=O)N[C@H]2CCCCNC(=O)[C@H](CC(N)=O)NC(=O)[C@@H](CC(=O)O)NC(=O)[C@H](Cc3cnc[nH]3)NC(=O)[C@@H](Cc3ccccc3)NC(=O)[C@H]([C@@H](C)CC)NC(=O)[C@@H](CCCN)NC2=O)[C@@H](C)CC)CS1` [Bacitracin] + CC[C@H]1OC(=O)[C@H](C)[C@@H](O[C@H]2C[C@@](C)(OC)[C@@H](O)[C@H](C)O2)[C@H](C)[C@@H](O[C@@H]2O[C@H](C)C[C@H](N(C)C)[C@H]2O)[C@](C)(O)C[C@@H](C)C(=O)[C@H](C)[C@@H](O)[C@]1(C)O [Erythromycin], the Bliss interaction score in the experiment with B. subtilis 168 is -0.0517; with S. aureus DSM 20231 (main component drawn), -0.0209; with S. aureus Newman it was -0.0632; in the experiment with S. pneumoniae D39V, 0.0397.
On the same counts, the results for `CC[C@H](C)[C@H](N)C1=N[C@H](C(=O)N[C@@H](CC(C)C)C(=O)N[C@H](CCC(=O)O)C(=O)N[C@H](C(=O)N[C@H]2CCCCNC(=O)[C@H](CC(N)=O)NC(=O)[C@@H](CC(=O)O)NC(=O)[C@H](Cc3cnc[nH]3)NC(=O)[C@@H](Cc3ccccc3)NC(=O)[C@H]([C@@H](C)CC)NC(=O)[C@@H](CCCN)NC2=O)[C@@H](C)CC)CS1` [Bacitracin] + CC[C@H]1OC(=O)[C@H](C)[C@@H](O[C@H]2C[C@@](C)(OC)[C@@H](O)[C@H](C)O2)[C@H](C)[C@@H](O[C@@H]2O[C@H](C)C[C@H](N(C)C)[C@H]2O)[C@](C)(OC)C[C@@H](C)C(=O)[C@H](C)[C@@H](O)[C@]1(C)O [Clarithromycin] are 0.0539, -0.0475, -0.0869 and -0.0454.
As to `CC[C@H](C)[C@H](N)C1=N[C@H](C(=O)N[C@@H](CC(C)C)C(=O)N[C@H](CCC(=O)O)C(=O)N[C@H](C(=O)N[C@H]2CCCCNC(=O)[C@H](CC(N)=O)NC(=O)[C@@H](CC(=O)O)NC(=O)[C@H](Cc3cnc[nH]3)NC(=O)[C@@H](Cc3ccccc3)NC(=O)[C@H]([C@@H](C)CC)NC(=O)[C@@H](CCCN)NC2=O)[C@@H](C)CC)CS1` [Bacitracin] + CN(C)[C@@H]1C(O)=C(C(N)=O)C(=O)[C@@]2(O)C(O)=C3C(=O)c4c(O)ccc(Cl)c4[C@@](C)(O)[C@H]3C[C@@H]12 [Clortetracycline], the Bliss interaction score in the experiment with B. subtilis 168 is -0.12; in the experiment on S. aureus DSM 20231 (main component drawn) it was 0.0294; in the experiment on S. aureus Newman it was -0.0827; with S. pneumoniae D39V it was 0.135.
Regarding `CO[C@@]12[C@H](COC(N)=O)C3=C(C(=O)C(C)=C(N)C3=O)N1C[C@@H]1N[C@@H]12` [MitomycinC] + COc1ccc(CCN(C)CCCC(C#N)(c2ccc(OC)c(OC)c2)C(C)C)cc1OC [Verapamil], the Bliss interaction score in the experiment on S. aureus DSM 20231 worked out at 0.195.
With `CO[C@@]12[C@H](COC(N)=O)C3=C(C(=O)C(C)=C(N)C3=O)N1C[C@@H]1N[C@@H]12` [MitomycinC] + Cc1c(Cl)cccc1Nc1ccccc1C(=O)O [Tolfenamic], the Bliss interaction score in the experiment on S. aureus DSM 20231 is -0.273.
For `CC(C)(O)c1ccccc1CC[C@@H](SCC1(CC(=O)O)CC1)c1cccc(/C=C/c2ccc3ccc(Cl)cc3n2)c1` [Montelukast] + CCC(C)C1C(=O)NC(=C)C(=O)NC(C(=O)NC(CSCC(C(=O)N1)NC(=O)/C(=C/C)/NC(=O)C(C(C)CC)N)C(=O)NC2C(SCC(NC(=O)CNC(=O)C3CCCN3C2=O)C(=O)NC(CCCCN)C(=O)NC4C(SCC(NC(=O)CNC(=O)C(NC(=O)C(NC(=O)C(NC(=O)CNC4=O)C)CC(C)C)CCSC)C(=O)NC(CC(=O)N)C(=O)NC(CCSC)C(=O)NC(CCCCN)C(=O)NC5C(SCC6C(=O)NC(C(=O)NC(CSC(C(C(=O)N6)NC(=O)C(NC5=O)C)C)C(=O)NC(CO)C(=O)NC(C(C)CC)C(=O)NC(CC7=CN=CN7)C(=O)NC(C(C)C)C(=O)NC(=C)C(=O)NC(CCCCN)C(=O)O)CC8=CN=CN8)C)C)C)CC(C)C [Nisin], the Bliss interaction score in the experiment on S. aureus DSM 20231 (main component drawn) amounted to 0.297.
As to `CC(C)(O)c1ccccc1CC[C@@H](SCC1(CC(=O)O)CC1)c1cccc(/C=C/c2ccc3ccc(Cl)cc3n2)c1` [Montelukast] + CN[C@@H]1[C@H](O[C@H]2[C@H](O[C@H]3[C@H](O)[C@@H](O)[C@H](N=C(N)N)[C@@H](O)[C@@H]3N=C(N)N)O[C@@H](C)[C@]2(O)C=O)O[C@@H](CO)[C@H](O)[C@H]1O [Streptomycin], in the experiment with S. aureus DSM 20231, the Bliss interaction score was -0.394.
For `CC(C)(O)c1ccccc1CC[C@@H](SCC1(CC(=O)O)CC1)c1cccc(/C=C/c2ccc3ccc(Cl)cc3n2)c1` [Montelukast] + CN[C@H](CC(C)C)C(=O)N[C@H]1C(=O)N[C@@H](CC(N)=O)C(=O)N[C@H]2C(=O)N[C@H]3C(=O)N[C@H](C(=O)N[C@H](C(=O)O)c4cc(O)cc(O)c4-c4cc3ccc4O)[C@H](O[C@H]3C[C@](C)(N)[C@@H](O)[C@H](C)O3)c3ccc(c(Cl)c3)Oc3cc2cc(c3O[C@@H]2O[C@H](CO)[C@@H](O)[C@H](O)[C@H]2O[C@H]2C[C@](C)(NCc3ccc(-c4ccc(Cl)cc4)cc3)[C@@H](O)[C@H](C)O2)Oc2ccc(cc2Cl)[C@H]1O [Oritavancin], the Bliss interaction score with S. aureus DSM 20231 came to 0.247.
Take `CC(C)(O)c1ccccc1CC[C@@H](SCC1(CC(=O)O)CC1)c1cccc(/C=C/c2ccc3ccc(Cl)cc3n2)c1` [Montelukast] + COc1cc(Cc2cnc(N)nc2N)cc(OC)c1OC [Trimethoprim]: in the experiment on S. aureus DSM 20231, the Bliss interaction score is -0.299.
With `CC(C)(O)c1ccccc1CC[C@@H](SCC1(CC(=O)O)CC1)c1cccc(/C=C/c2ccc3ccc(Cl)cc3n2)c1` [Montelukast] + Cn1nnc(-c2ccc(-c3ccc(N4C[C@H](CO)OC4=O)cc3F)cn2)n1 [Tedizolid], the Bliss interaction score with S. aureus DSM 20231 was -0.384.
On to `CO[C@@H]1[C@@H](OC(N)=O)[C@@H](O)[C@H](Oc2ccc3c(O)c(NC(=O)c4ccc(O)c(CC=C(C)C)c4)c(=O)oc3c2C)OC1(C)C` [Novobiocin] + CCCSc1nc(N[C@@H]2C[C@H]2c2ccc(F)c(F)c2)c2nnn([C@@H]3C[C@H](OCCO)[C@@H](O)[C@H]3O)c2n1 [Ticagrelor], for which the Bliss interaction score in the experiment with S. aureus DSM 20231 turned out to be 0.177.
As to `CO[C@H]1/C=C/O[C@@]2(C)Oc3c(C)c(O)c4c(O)c(c(/C=N/N5CCN(C)CC5)c(O)c4c3C2=O)NC(=O)/C(C)=C\C=C\[C@H](C)[C@H](O)[C@@H](C)[C@@H](O)[C@@H](C)[C@H](OC(C)=O)[C@@H]1C` [Rifampicin] + CCCSc1nc(N[C@@H]2C[C@H]2c2ccc(F)c(F)c2)c2nnn([C@@H]3C[C@H](OCCO)[C@@H](O)[C@H]3O)c2n1 [Ticagrelor], the Bliss interaction score with S. aureus DSM 20231 stood at 0.245.
In the case of `CN[C@@H]1[C@H](O)[C@H](NC)[C@H]2O[C@@]3(O)C(=O)C[C@@H](C)O[C@H]3O[C@@H]2[C@H]1O` [Spectinomycin] + Cc1c(Cl)cccc1Nc1ccccc1C(=O)O [Tolfenamic], the Bliss interaction score in the experiment with S. aureus DSM 20231 was determined as 0.145.
Same read-out and setting: to `CN[C@@H]1[C@H](O[C@H]2[C@H](O[C@H]3[C@H](O)[C@@H](O)[C@H](N=C(N)N)[C@@H](O)[C@@H]3N=C(N)N)O[C@@H](C)[C@]2(O)C=O)O[C@@H](CO)[C@H](O)[C@H]1O` [Streptomycin] + CC/C(=C(\c1ccccc1)c1ccc(OCCN(C)C)cc1)c1ccccc1 [Tamoxifene] belongs 0.166; to `CN[C@@H]1[C@H](O[C@H]2[C@H](O[C@H]3[C@H](O)[C@@H](O)[C@H](N=C(N)N)[C@@H](O)[C@@H]3N=C(N)N)O[C@@H](C)[C@]2(O)C=O)O[C@@H](CO)[C@H](O)[C@H]1O` [Streptomycin] + CCCSc1nc(N[C@@H]2C[C@H]2c2ccc(F)c(F)c2)c2nnn([C@@H]3C[C@H](OCCO)[C@@H](O)[C@H]3O)c2n1 [Ticagrelor], -0.259.
The same measure, in the same setting: the same measure for `CN[C@@H]1[C@H](O[C@H]2[C@H](O[C@H]3[C@H](O)[C@@H](O)[C@H](N=C(N)N)[C@@H](O)[C@@H]3N=C(N)N)O[C@@H](C)[C@]2(O)C=O)O[C@@H](CO)[C@H](O)[C@H]1O` [Streptomycin] + CCCc1nc2c(C)cc(-c3nc4ccccc4n3C)cc2n1Cc1ccc(-c2ccccc2C(=O)O)cc1 [Telmisartan]: 0.123; for `CN[C@@H]1[C@H](O[C@H]2[C@H](O[C@H]3[C@H](O)[C@@H](O)[C@H](N=C(N)N)[C@@H](O)[C@@H]3N=C(N)N)O[C@@H](C)[C@]2(O)C=O)O[C@@H](CO)[C@H](O)[C@H]1O` [Streptomycin] + Cc1ccc(C(C)C)c(O)c1 [Thymol]: -0.425.
